In article PMC9246766 (Pharmaceutical research, 2022):
Like-named read-outs stand apart in the source and are kept apart here.

Key:
[1] = cited from earlier work; for FDA product insert: warnings, precautions and major adverse reactions: cardiovascular / CNS related, ref FDA product insert; for Neurological side effects: stated in discussion, ref Table SII, 60
[2] = biological target: T1, OCT3 (Homo sapiens, UniProt O75751); assay: Predicted DDI potential: ratio of plasma CMAX (total or unbound) to predicted OCT3 IC50; conditions: unbound plasma CMAX over predicted OCT3 IC50
T1 sequence (O75751 1-556): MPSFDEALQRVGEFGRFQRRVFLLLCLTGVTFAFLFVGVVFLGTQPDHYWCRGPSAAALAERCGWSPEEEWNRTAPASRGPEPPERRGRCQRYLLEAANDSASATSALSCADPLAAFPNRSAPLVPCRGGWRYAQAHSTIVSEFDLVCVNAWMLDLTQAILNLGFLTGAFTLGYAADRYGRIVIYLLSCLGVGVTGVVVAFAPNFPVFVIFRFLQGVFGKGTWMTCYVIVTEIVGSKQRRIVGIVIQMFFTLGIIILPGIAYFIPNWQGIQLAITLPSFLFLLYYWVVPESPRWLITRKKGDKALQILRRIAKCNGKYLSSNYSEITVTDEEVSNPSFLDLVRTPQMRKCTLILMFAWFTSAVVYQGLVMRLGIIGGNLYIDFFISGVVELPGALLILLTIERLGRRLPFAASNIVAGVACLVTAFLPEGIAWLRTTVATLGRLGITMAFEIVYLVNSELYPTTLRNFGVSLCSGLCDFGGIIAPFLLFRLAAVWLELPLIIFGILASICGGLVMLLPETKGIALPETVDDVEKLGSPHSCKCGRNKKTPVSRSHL

[3] = total maximum plasma concentration; ref http://www.micromedexsolutions.com/; cited from earlier work
[4] = biological target: T1, OCT3; assay: High throughput screen: inhibition of OCT3-mediated ASP+ uptake in HEK-293 cells stably expressing OCT3; type: cell-based; conditions: for inhibition at 20 µM: HEK293
[5] = biological target: T1, OCT3; assay: ASP+ uptake kinetics in HEK-293 cells overexpressing OCT3; type: cell-based; conditions: read-out: Km of OCT3-mediated ASP+ uptake; 2 min uptake, 37°C; OCT3-specific uptake (OCT3 minus empty vector)
[6] = plasma protein binding used for unbound CMAX; source not given; cited from earlier work
[7] = biological target: T1, OCT3; conditions: read-out: Experimental IC50; OCT3 inhibition, literature value; ref 1 (Bourdet et al., 2005); cited from earlier work
[8] = biological target: T1, OCT3; assay: IC50 determination against OCT3-mediated [14C]metformin uptake in HEK-293 cells overexpressing OCT3; type: cell-based
[9] = biological target: T1, OCT3; assay: IC50 determination against OCT3-mediated ASP+ uptake in HEK-293 cells overexpressing OCT3; type: cell-based

Compound | FDA product insert: warnings, precautions and major adverse reactions [1] | Neurological side effects [1] | Unbound CMAX/IC50 [2] | Cmax [3] [µM] | IC50 [4] [µM] | inhibition at 20 µM [4] [%] | Km [5] [µM] | Protein binding [6] [%] | IC50 [7] [µM] | IC50 [8] [µM] | FDA product insert: warnings, precautions and major adverse reactions ([1]; listed as Trazodone) | IC50 [9] [µM]
C[C@@H](O)[C@H]1C(=O)N2C(C(=O)O)=C(S[C@@H]3CN[C@H](C(=O)N(C)C)C3)[C@H](C)[C@H]12 [meropenem] | Warnings and precautions: Seizures and other adverse CNS experiences have been reported during treatment. | neurological side effects | 23.3 | 256 | 10.8 | 65 |  |  |  |  |  | 
CN(C)c1ccc(/C=C/c2cc[n+](C)cc2)cc1 [ASP^+, 4-Di-1-ASP] |  |  |  |  |  |  | 33.3 |  |  |  |  | 
O=C(O)c1ccccc1Nc1cccc(C(F)(F)F)c1 [flufenamic acid] |  |  | 0.19 | 24.2 | 13 | 60.6 |  | 90 |  |  |  | 
NC(N)=Nc1nc(CSCCC(N)=NS(N)(=O)=O)cs1 [famotidine] | Warnings and precautions: Central Nervous System (CNS) Adverse Reactions: Advise elderly patients and those with moderate and severe renal impairment of the risk of CNS adverse reactions, including confusion, delirium, hallucinations, disorientation, agitation, seizures, and lethargy. | neurological side effects | 28.0 | 308 | 9.9 | 66.9 |  | 10 | 6.7 ± 2 |  |  | 
O=c1n(CCCN2CCN(c3cccc(Cl)c3)CC2)nc2ccccn12 [trazodone] | warnings and precautions related to cardiovascular side-effects |  | 0.15 | 7.6 | < 5 | 94.5 |  | 90 |  | 2.5 | Warnings and precautions: Cardiac Arrhythmias: Increases the QT interval. Avoid use with drugs that also increase the QT interval and in patients with risk factors for prolonged QT interval. | 5.2
CC1(C)S[C@@H]2[C@H](NC(=O)[C@H](NC(=O)N3CCNC3=O)c3ccccc3)C(=O)N2[C@H]1C(=O)O [azlocillin] |  |  | 1.23 | 17.3 | 9.9 | 66.9 |  | 30 |  |  |  | 
